Measurements: US20250288683A1, “TETRAHYDROISOQUINOLINE HETEROBIFUNCTIONAL BCL-XL DEGRADERS” (Treeline Biosciences, Inc., priority 2022, published 2025)

Molecular target: T1, Human BCL-XL protein (N-terminal HiBiT tagged BCL-XL in HT1080 cells) (Homo sapiens, UniProt Q07817)
T1 construct: expressed in transfected cells; host or cells: HT-1080 (ATCC CCL-121), stably transduced with lentivirus pLV-UBC-N-HiBiT-BCL-XL-PGK-puro and selected with puromycin
Experiment: HiBiT based degradation assay
Format: cell-based
Settings: HT1080 cells expressing N-terminal HiBiT tagged BCL-XL, normalized with DMSO control
Description: HiBiT Based Degradation Assay
Human BCL-XL protein coding open reading frame fused with N-terminal HiBiT coding sequence was synthesized from Integrated DNA Technologies (IDT). Next, N-HiBiT-BCL-XL sequence was cloned into pLV-UBC-PGK-Puro, a lentivirus plasmid purchased from Vectorbuilder, to generate pLV-UBC-N-HiBiT-BCL-XL-PGK-puro. Lentiviral particles were generated from Lenti-X™ 293T cells (Clontech) by co-transfection of pLV-UBC-N-HiBiT-BCL-XL-PGK-puro plasmids and lentiviral packaging plasmid mix (Cellecta). HT-1080 [HT1080](ATCC CCL-121) cells were infected with the lentivirus, and HT1080 cells stably integrated with the lentiviral vectors were established by incubation with 1 μg/mL puromycin (Thermofisher).
HT1080 cells expressing N-terminal HiBiT tagged BCL-XL were dispensed into a 384-well plate pre-spotted with compounds at varying concentrations. Three thousand cells were seeded into each well in 40 μL of RPMI 1640 media. […] After incubation, luminescence was read on a PHERAstar FSX Plate Reader (BMG). BCL-XL degradation at each indicated concentration was normalized with the DMSO control. The BCL-XL degradation curves were plotted using a four-parameter logistic model. For compounds displaying hook effects, the curve fitting was performed using the bottom point of the hook curves (i.e., the point of Ymin) as the bottom plateau to calculate EC50.

T1 sequence (Q07817 whole entry): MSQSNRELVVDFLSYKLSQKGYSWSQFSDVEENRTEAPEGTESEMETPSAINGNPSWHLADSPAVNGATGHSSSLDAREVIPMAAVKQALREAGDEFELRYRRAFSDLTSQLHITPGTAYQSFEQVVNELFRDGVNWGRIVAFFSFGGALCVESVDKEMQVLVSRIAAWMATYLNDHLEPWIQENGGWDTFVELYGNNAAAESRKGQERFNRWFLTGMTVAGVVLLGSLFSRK

## Cc1ncsc1-c1ccc(CNC(=O)[C@@H]2C[C@@H](O)CN2C(=O)[C@@H](NC(=O)C2(F)CC2)C(C)(C)SCCCCCCCCCCOc2cccc(-c3ccc(N4CCc5cccc(C(=O)Nc6nc7ccccc7s6)c5C4)nc3C(=O)O)c2C)cc1 [Compound 137a, 6-(8-(benzo[d]thiazol-2-ylcarbamoyl)-3,4-dihydroisoquinolin-2 (1H)-yl)-3-(3-((10-(((R)-3-(1-fluorocyclopropane-1-carboxamido)-4-((2S,4R)-4-hydroxy-2-((4-(4-methylthiazol-5-yl)benzyl)carbamoyl)pyrrolidin-1-yl)-2-methyl-4-oxobutan-2-yl)thio)decyl)oxy)-2-methylphenyl)picolinic acid]
  Ymin (24 h): B (50% ≤ Ymin < 70%)

## Cc1ncsc1-c1ccc([C@@H](NC(=O)[C@@H]2C[C@@H](O)CN2C(=O)[C@@H](NC(=O)CCCc2ccc(Oc3cccc(-c4ccc(N5CCc6cccc(C(=O)Nc7nc8ccccc8s7)c6C5)nc4C(=O)O)c3C)cc2)C(C)(C)C)C(F)(F)F)cc1 [Compound 120a, 6-[8-(1,3-benzothiazol-2-ylcarbamoyl)-3,4-dihydro-1H-isoquinolin-2-yl]-3-[3-[4-[4-[[(1S)-1-[(2S,4R)-4-hydroxy-2-[[(1R)-2,2,2-trifluoro-1-[4-(4-methylthiazol-5-yl)phenyl]ethyl]carbamoyl]pyrrolidine-1-carbonyl]-2,2-dimethyl-propyl]amino]-4-oxo-butyl]phenoxy]-2-methyl-phenyl]pyridine-2-carboxylic acid]
  Ymin (24 h): A (Ymin < 50%)

## Cc1ncsc1-c1ccc([C@H](C)NC(=O)[C@@H]2C[C@@H](O)CN2C(=O)[C@@H](NC(=O)C[C@@H](C)Cc2ccc(Oc3cccc(-c4ccc(N5CCc6cccc(C(=O)Nc7nc8ccccc8s7)c6C5)nc4C(=O)O)c3C)cc2)C(C)(C)C)cc1 (relative stereo) [Compound 134a, 6-[8-(1,3-benzothiazol-2-ylcarbamoyl)-3,4-dihydro-1H-isoquinolin-2-yl]-3-[3-[4-[(2S)-4-[[(1S)-1-[(2S,4R)-4-hydroxy-2-[[(1S)-1-[4-(4-methylthiazol-5-yl)phenyl]ethyl]carbamoyl]pyrrolidine-1-carbonyl]-2,2-dimethyl-propyl]amino]-2-methyl-4-oxo-butyl]phenoxy]-2-methyl-phenyl]pyridine-2-carboxylic acid]
  Ymin (24 h): A (Ymin < 50%)

## Cc1ncsc1-c1ccc([C@H](C)NC(=O)[C@@H]2C[C@@H](O)CN2C(=O)[C@@H](NC(=O)CCCCCCCCCCCCCn2nc(C)c(-c3ccc(N4CCc5cccc(C(=O)Nc6nc7ccccc7s6)c5C4)nc3C(=O)O)c2C)C(C)(C)C)cc1 [Compound 104a, 6-[8-(1,3-benzothiazol-2-ylcarbamoyl)-3,4-dihydro-1H-isoquinolin-2-yl]-3-[1-[14-[[(1S)-1-[(2S,4R)-4-hydroxy-2-[[(1S)-1-[4-(4-methylthiazol-5-yl)phenyl]ethyl]carbamoyl]pyrrolidine-1-carbonyl]-2,2-dimethyl-propyl]amino]-14-oxo-tetradecyl]-3,5-dimethyl-pyrazol-4-yl]pyridine-2-carboxylic acid]
  Ymin (6 h): B (50% ≤ Ymin < 70%)

## Cc1ncsc1-c1ccc([C@H](C)NC(=O)[C@@H]2C[C@@H](O)CN2C(=O)[C@@H](NC(=O)CCCCCCCn2nc(C)c(-c3ccc(N4CCc5cccc(C(=O)Nc6nc7ccccc7s6)c5C4)nc3C(=O)O)c2C)C(C)(C)C)cc1 [Compound 103a, 6-[8-(1,3-benzothiazol-2-ylcarbamoyl)-3,4-dihydro-1H-isoquinolin-2-yl]-3-[1-[8-[[(1S)-1-[(2S,4R)-4-hydroxy-2-[[(1S)-1-[4-(4-methylthiazol-5-yl)phenyl]ethyl]carbamoyl]pyrrolidine-1-carbonyl]-2,2-dimethyl-propyl]amino]-8-oxo-octyl]-3,5-dimethyl-pyrazol-4-yl]pyridine-2-carboxylic acid]
  Ymin (6 h): A (Ymin < 50%)

## Cc1ncsc1-c1ccc([C@H](C)NC(=O)[C@@H]2C[C@@H](O)CN2C(=O)[C@@H](NC(=O)CCCCCCCCCCCCCCCn2nc(C)c(-c3ccc(N4CCc5cccc(C(=O)Nc6nc7ccccc7s6)c5C4)nc3C(=O)O)c2C)C(C)(C)C)cc1 [Compound 102a, 6-[8-(1,3-Benzothiazol-2-ylcarbamoyl)-3,4-dihydro-1H-isoquinolin-2-yl]-3-[1-[16-[[(1S)-1-[(2S,4R)-4-hydroxy-2-[[(1S)-1-[4-(4-methylthiazol-5-yl)phenyl]ethyl]carbamoyl]pyrrolidine-1-carbonyl]-2,2-dimethyl-propyl]amino]-16-oxo-hexadecyl]-3,5-dimethyl-pyrazol-4-yl]pyridine-2-carboxylic acid]
  Ymin (6 h): A (Ymin < 50%)

## Cc1ncsc1-c1ccc([C@H](C)NC(=O)[C@@H]2C[C@@H](O)CN2C(=O)[C@@H](NC(=O)CN2CCC(CCCOc3cccc(-c4ccc(N5CCc6cccc(C(=O)Nc7nc8ccccc8s7)c6C5)nc4C(=O)O)c3C)CC2)C(C)(C)C)cc1 [Compound 124a, 6-[8-(1,3-benzothiazol-2-ylcarbamoyl)-3,4-dihydro-1H-isoquinolin-2-yl]-3-[3-[3-[1-[2-[[(1S)-1-[(2S,4R)-4-hydroxy-2-[[(1S)-1-[4-(4-methylthiazol-5-yl)phenyl]ethyl]carbamoyl]pyrrolidine-1-carbonyl]-2,2-dimethyl-propyl]amino]-2-oxo-ethyl]-4-piperidyl]propoxy]-2-methyl-phenyl]pyridine-2-carboxylic acid]
  Ymin (24 h): A (Ymin < 50%)

## Cc1ncsc1-c1ccc([C@H](C)NC(=O)[C@@H]2C[C@@H](O)CN2C(=O)[C@@H](NC(=O)C(F)(F)C[C@H]2CC[C@H](Oc3cccc(-c4ccc(N5CCc6cccc(C(=O)Nc7nc8ccccc8s7)c6C5)nc4C(=O)O)c3C)CC2)C(C)(C)C)cc1 [Compound 117a, 6-(8-(benzo[d]thiazol-2-ylcarbamoyl)-3,4-dihydroisoquinolin-2 (1H)-yl)-3-(3-(((1S,4r)-4-(2,2-difluoro-3-(((S)-1-((2S,4R)-4-hydroxy-2-(((S)-1-(4-(4-methylthiazol-5-yl)phenyl)ethyl)carbamoyl)pyrrolidin-1-yl)-3,3-dimethyl-1-oxobutan-2-yl)amino)-3-oxopropyl)cyclohexyl)oxy)-2-methylphenyl)picolinic acid]
  Ymin (24 h): B (50% ≤ Ymin < 70%)

## Cc1ncsc1-c1ccc(CNC(=O)[C@@H]2C[C@@H](O)CN2C(=O)[C@@H](NC(=O)C2(F)CC2)C(C)(C)SCCCCCCCCCOc2cccc(-c3ccc(N4CCc5cccc(C(=O)Nc6nc7ccccc7s6)c5C4)nc3C(=O)O)c2C)cc1 [Compound 141a]
  Ymin (24 h): A (Ymin < 50%)

## Cc1ncsc1-c1ccc([C@H](C)NC(=O)[C@@H]2C[C@@H](O)CN2C(=O)[C@@H](NC(=O)Cc2ccc(Oc3cccc(-c4ccc(N5CCc6cccc(C(=O)Nc7nc8ccccc8s7)c6C5)nc4C(=O)O)c3C)cc2)C(C)(C)C)cc1 [Compound 113a, 6-[8-(1,3-benzothiazol-2-ylcarbamoyl)-3,4-dihydro-1H-isoquinolin-2-yl]-3-[3-[4-[2-[[(1S)-1-[(2S,4R)-4-hydroxy-2-[[(1S)-1-[4-(4-methylthiazol-5-yl)phenyl]ethyl]carbamoyl]pyrrolidine-1-carbonyl]-2,2-dimethyl-propyl]amino]-2-oxo-ethyl]phenoxy]-2-methyl-phenyl]pyridine-2-carboxylic acid]
  Ymin (6 h): A (Ymin < 50%)
  Ymin (24 h): A (Ymin < 50%)
